For data set [1], the system named is rat uterine decidualization. Description: Rat decidualization assay. It is filed as in vivo. To be noted: for Decidualization IC50: half-maximal decrease in EC50 progesterone induced decidual response; for Estimated average EC50 (decidual response) / Estimated EC50 for uterine wet weight (decidual response): s.c.; for Estimated average EC50 (decidual response): average of dose-response curves; for Estimated EC50 for uterine wet weight (decidual response): individual studies. The method, then: 1. Rat Decidualization Assay
b. Animals (RACUC Protocol #5002)
The animals are treated once daily for seven days.
Uteri are removed and trimmed of fat.
Body weight: Mean total animal body weight (default-kg)
Decidual response: [(D-C)/C]x100%

The mark [2] stands for this setting: read-out: Decidualization, percentage inhibition at the dose specified.

Broadly, the inhibition is how much of the control response was suppressed. As a reminder, the melting point is the temperature of the solid-liquid transition.

Where “and” joins values, the source holds several entries; their conditions need not be identical. Identical values can stand only once.

Regarding `CC1(C)OC(=O)Nc2ccc(-c3cc(F)cc(Cl)c3)cc21` [Compound 14, 6-(3-Chloro-5fluoro-phenyl)-4,4dimethyl-1,4-dihydro-benzo[d][1,3]oxazin-2-one], in data set [1] (setting [2]), the inhibition at 3 mg/kg turned out to be 50%.

In turn, `CC1(C)OC(=O)Nc2ccc(-c3cccc(F)c3)cc21` [Compound 3, 6-(3-Fluoro-phenyl)-4,4-dimethyl-1,4-dihydro-benzo[d][1,3]-oxazin-2-one] displayed a melting point of 181 to 182 °C. In data set [1] (setting [2]), the inhibition at 3 mg/kg was 80%. On the same counts, the results for `CC1(C)OC(=O)Nc2ccc(-c3cc(F)cc(Br)c3)cc21` [Compound 8, 6-(3-Bromo-5-fluorophenyl)-4,4-dimethyl-1,4-dihydrobenzo[d][1,3]oxazin-2-one] are 182 to 183 °C and 50%.

`CC1(C)OC(=O)Nc2ccc(-c3ccc(F)c(C#N)c3)cc21` [Compound 1, 5-(4,4Dimethyl-2-oxo-1,4-dihydro-2H-benzo[d][1,3]oxazin-6-yl)-2-fluoro-benzonitrile]: in data set [1] (setting [2]), the inhibition at 1 mg/kg was 80%. For the compound `N#Cc1ccc(-c2ccc3c(c2)C2(CCCCC2)OC(=O)N3)s1` [Compound 11, 5-(1,2-Dihydro-2-oxospiro[4H-3,1-benzoxazine-4,1-cyclohexan]-6-yl)-2-thiophenecarbonitrile], the melting point was in the range of 243 to 245 °C. Further, the inhibition at 10 mg/kg in data set [1] (dose 10 mg/kg, read-out: Decidualization, percentage inhibition at the dose specified) was 50%.

In turn, `N#Cc1cc(F)cc(-c2ccc3c(c2)C(C2CC2)(C2CC2)OC(=O)N3)c1` [Compound 15, 3-(4,4Dicyclopropyl-2-oxo-1,4-dihydro-2H-benzo[d][1,3]oxazin-6-yl)5-fluoro-benzonitrile] came in with a melting point of 250 to 252 °C. Moreover, the “Decidualization IC50” value in data set [1] is recorded as 3 mg/kg. As for `CC1(C)OC(=O)Nc2ccc(-c3cc(F)cc(C#N)c3)cc21` [Compound 19, 3-(4,4-Dimethyl-2-oxo-1,4-dihydro-2H-benzo[d][1,3]oxazin-6-yl)-5-fluorobenzonitrile], the “Decidualization IC50” value in data set [1] was found to be 0.35 mg/kg.

Take `CC1(C)OC(=O)Nc2ccc(-c3csc(C#N)c3)cc21` [Compound 17, 4-(4.4-Dimethyl-2-oxo-1.4dihydro-2H-benzo[d][1,3]oxazin-6-yl)thiophene2-carbonitrile]: the “Decidualization IC50” value in data set [1] was found to be 2.3 ± 0.46 mg/kg. In the case of `CC1(C)OC(=O)Nc2ccc(-c3cc(C#N)ccc3F)cc21` [Compound 5, 3-(4,4-Dimethyl-2-oxo-1,4-dihydro-2H-benzo[d][1,3]oxazin-6-yl)-4-fluoro-benzonitrile], the melting point is 229 to 230 °C. Moreover, the inhibition at 1 mg/kg in data set [1] (setting [2]) came to 60%. As to `CC1(C)OC(=O)Nc2ccc(-c3cccc(Br)c3)cc21` [Compound 13], the melting point fell in the range of 174 to 175 °C. For the same compound, the “Decidualization IC50” value in data set [1] is recorded as 3 mg/kg. Turning to `CC1(C)OC(=O)Nc2ccc(-c3cc(F)cc([N+](=O)[O-])c3)cc21` [Compound 6, 6-(3-Fluoro-5-nitro-phenyl)-4,4-dimethyl-1,4dihydro-benzo[d][1,3]oxazin-2-one], the melting point is 260 to 261 °C. The inhibition at 1 mg/kg in data set [1] (setting [2]) worked out at 50%. Regarding `CC1(C)OC(=O)Nc2ccc(-c3ccc(C#N)s3)cc21` [Compound 12, 5-(4,4-Dimethyl-2-oxo-1,4-dihydro-2H-benzo[d][1,3]oxazin-6-yl)-thiophene-2-carbonitrile], the melting point was 264 to 266 °C. In addition, in data set [1], the “Decidualization IC50” value is 3.34 ± 0.22 mg/kg. On to `Cc1cc(C#N)sc1-c1ccc2c(c1)C(C)(C)OC(=O)N2` [Compound 18, 5-(4. 4-Dimethyl-2-oxo-1. 4-dihydro-2H-benzo[d][1,3]oxazin-6-yl)-4-methyl-thiophene-2-carbonitrile], for which, in data set [1], the “Decidualization IC50” value stood at 1.5 mg/kg.

In the case of `Cc1cc(C#N)sc1-c1ccc2c(c1)C1(CCCCC1)OC(=O)N2` [Compound 10, 5-(1,2-Dihydro-2-oxospiro[4H-3,1-benzoxazine-4,1-cyclohexan]-6-yl)-4-methyl-2-thiophenecabonitrile], the “Decidualization, percentage inhibition at the dose specified” value in data set [1] (dose 10 mg/kg) is listed as 50% @ 1O.

Turning to `CC1(C)OC(=O)Nc2ccc(-c3ccc(F)c(Cl)c3)cc21` [Compound 20, 6-(3-Chloro-4-fluoro-phenyl)-4,4-dimethyl-1,4-dihydro-benzo[d][1,3]oxazin-2-one], the “Decidualization IC50” value in data set [1] came out at 1 mg/kg. With `C#C[C@]1(O)CC[C@H]2[C@@H]3CCC4=CC(=O)CC[C@@H]4[C@H]3CC[C@@]21CC` [Levonorgestrel, reference compound], in data set [1], the “Estimated average EC50 (decidual response)” value (shortened to “Estimated average EC50”) is recorded as 0.10 mg/kg; the “Estimated EC50 for uterine wet weight (decidual response)” value (“Estimated EC50 for uterine wet weight” below) was 0.08 mg/kg and 0.12 mg/kg and 0.09 mg/kg (2×). `CC1(C)OC(=O)Nc2ccc(-c3cncc(Br)c3)cc21` [Compound 16, 6-(5-Bromo-pyridin-3-yl)-4,4-dimethyl-1,4-dihydro-benzo[d][1,3]oxazin-2-one] yielded a melting point of 211 to 212 °C. The inhibition at 3 mg/kg in data set [1] (setting [2]) worked out at 50%. As for `CC(=O)[C@H]1CC[C@H]2[C@@H]3CCC4=CC(=O)CC[C@]4(C)[C@H]3CC[C@]12C` [Progesterone, reference compound], in data set [1], the “Estimated average EC50” value was 5.62 mg/kg and the “Estimated EC50 for uterine wet weight” value was 5.50 mg/kg. `CC1(Cc2ccccc2)OC(=O)Nc2ccc(-c3cccc(Cl)c3)cc21` (stereo not drawn) [Example 40, 4-Benzyl-6-(3-chloro-phenyl)-4-methyl-1,4-dihydro-benzo[d][1,3]oxazin-2-one]: the melting point lay in the range of 187 to 188 °C. For `CC1(C)OC(=O)Nc2ccc(-c3coc(C=O)c3)cc21` [Example 144, 4-(4,4-Dimethyl-2-oxo-1,4-dihydro-2H-benzo[d][1,3]oxazin-6-yl)-furan-2-carbaldehyde], the melting point fell in the range of 262 to 263 °C. `CC1(C2CC2)OC(=O)Nc2ccc(-c3cccc(Cl)c3)cc21` (stereo not drawn) [Example 41, 6(3-Chloro-phenyl)-4-cyclopropyl-4-methyl-1,4-dihydro-benzo [d][1,3]oxazin-2-one] returned a melting point of 158 to 159 °C.

The compound `CCCCc1cc(C#N)sc1-c1ccc2c(c1)C(C)(C)OC(=O)N2` [Example 113, 5-(4,4-Dimethyl-2-oxo-1,4-dihydro-2H-benzo[d][1,3]oxazin-6-yl)4-n-butyl-thiophene-2-carbonitrile] showed a melting point of 167 to 168 °C.

`CC(C)(C)OC(=O)n1c(-c2ccc3c(c2)C(C)(C)OC(=O)N3)ccc1[N+](=O)[O-]` [Example 95, 2-(4,4Dimethyl-2-oxo-1,4-dihydro-2H-benzo[d][1,3]oxazin-6-yl)-5-nitro-pyrrole-1-carboxylic acid tert-butyl ester]: the melting point was determined as 125 °C. `CC1(C)OC(=O)Nc2ccc(-c3cccc(-c4nnn[nH]4)c3)cc21` [Example 52, 4,4-Dimethyl-6-[3-(1H-tetrazol-5-yl)-phenyl]-1,4dihydrobenzo[d][1,3]oxazin-2-one]: the melting point was in the range of 238 to 240 °C. For the compound `CC1(C)OC(=O)Nc2ccc(-c3cc(C#N)cc(OC(F)(F)F)c3)cc21` [Example 59, 3-(4,4-Dimethyl-2-oxo-1,4-dihydro-2H-benzo[d][1,3]oxazin-6-yl)-5-trifluoromethoxy-benzonitrile], the melting point was 227 to 228 °C. For `CC1(C)OC(=O)Nc2ccc(-c3cc(F)cc(C(F)(F)F)c3)cc21` [Compound 2, 6-(3-Fluoro-5-trifluoromethyl-phenyl)-4,4-dimethyl-1,4-dihydro-benzo[d][1,3]oxazin-2-one], the melting point lay within 207 to 208 °C. Also, in data set [1] (setting [2]), the inhibition at 1 mg/kg came to 50%.

`C=CCC1(C)OC(=O)Nc2ccc(-c3cccc(Cl)c3)cc21` (stereo not drawn) [Example 36, 4-Allyl-6-(3-chlorophenyl)-4-methyl-1,4-dihydro-benzo[d][1,3]oxazin-2-one]: the melting point lay within 128 to 129 °C.

`CC1OC(=O)Nc2ccc(-c3cccc(Cl)c3)cc21` (stereo not drawn) [Example 9, 6-(3-Chloro-phenyl)-4-methyl-1,4-dihydro-benzo[d][1,3]oxazin-2-one] had a melting point of 155 to 156 °C.

In the case of `CC1(C)OC(=O)Nc2ccc(-c3cc(C(F)(F)F)cc(C(F)(F)F)c3)cc21` [Example 62, 6-(3,5-Bis-trifluoromethyl-phenyl)-4,4-dimethyl-1,4-dihydrobenzo[d][1,3]oxazin-2-one], the melting point lay in the range of 258 to 260 °C. On to `CC1(C)OC(=O)Nc2c(Br)cc(-c3ccc(F)c(C#N)c3)cc21` [Example 125, 5-(8-Bromo-4,4-dimethyl-2-oxo-1,4-dihydro-2H-3,1-benzoxazin-6-yl)-2-fluorobenzonitrile], for which the melting point lay within 235 to 236 °C.

Consider `CC(=O)Nc1ccc(-c2ccc3c(c2)C(C)(C)OC(=O)N3)cc1F` [Example 137, N-[4-(4,4-Dimethyl-2-oxo-1,4-dihydro-2H-3,1-benzoxazin-6-yl)-2fluoro-phenyl]-acetamide], for which the melting point fell in the range of 245 to 247 °C.

In the case of `CC1(C)OC(=O)Nc2ccc(-c3ccc(C#N)o3)cc21` [Example 119, 5-(4,4Dimethyl-2-oxo-1,4-dihydro-2H-benzo[d][1,3]oxazin-6-yl)-furan-2-carbonitrile], the melting point lay within 257 to 260 °C. The same measure, in the same setting: the value for `CC1(C)OC(=O)Nc2ccc(-c3ccc(N)nc3)cc21` [Example 142, 6-(6-Amino-pyridin-3-yl)-4,4-dimethyl-1,4-dihydro-benzo[d][1,3]oxazine-2-one] was 257 to 259 °C. On to `CC1(C)OC(=O)Nc2c(Br)cc(-c3cc(F)cc(C#N)c3)cc21` [Example 124, 3-(8Bromo-4,4-dimethyl-2-oxo-1,4-dihydro-2H-3,1-benzoxazin-6-yl)-5-fluorobenzonitrile], for which the melting point fell in the range of 216 to 217 °C.

As to `C#C[C@]1(O)CC[C@H]2[C@@H]3CCC4=CC(=O)CC[C@@H]4[C@H]3C(=C)C[C@@]21CC` [3-Ketodesogestrel, reference compound], in data set [1], the “Estimated average EC50” value was 0.10 mg/kg; the “Estimated EC50 for uterine wet weight” value is 0.10 mg/kg and 0.06 mg/kg and 0.11 mg/kg.
